Results taken from paper PMC4958397, “Synthesis, antibacterial and antiproliferative potential of some new 1-pyridinecarbonyl-4-substituted thiosemicarbazide derivatives” (Medicinal Chemistry Research, 2016).
≈ marks a conversion by molar mass, not a printed value.

Tests used:
Format in all cases: cell-based
[1] = test system: Escherichia coli ATCC 25922; experiment: Disk diffusion, zone of bacterial growth inhibition; conditions: Escherichia coli, ATCC25922, 100 μg of compound, read-out: Zone of bacterial growth inhibition, E.c
From the text: (§1) Panel reference strains of bacteria from the American Type Culture Collection or Polish Collection of Microorganisms, including aerobic Gram-positive bacteria: Staphylococcus aureus ATCC 25923 and Staphylococcus epidermidis ATCC 12228, and aerobic Gram-negative bacteria: Escherichia coli ATCC 25922 and Pseudomonas aeruginosa ATCC 9027, as well as microaerobic Gram-positive bacteria: Lactobacillus spp., Lactobacillus acidophilus PCM 2105, Streptococcus mutans PCM 2502 and Streptococcus sanguinis PCM 2335, were used. Microbial suspensions with an optical density of 0.5 McFarland standard at 1.5 × 10^8 CFU/mL (CFU: colony forming unit) were prepared in sterile 0.9 % NaCl. Mueller–Hinton (M–H) broth and M–H agar (Oxoid Ltd., England) for aerobic strains, and MRS Broth Lactobacillus, MRS Agar Lactobacillus (BioMaxima S.A., Poland), BHI Broth and BHI agar (BioMaxima S.A., Poland) for microaerobic strains were used in the microbial tests.
(§2) The preliminary antibacterial activity of the carbazide derivatives against human pathogenic Gram-positive, Gram-negative aerobic and microaerobic bacteria was evaluated by measuring the zones of inhibition in the disk diffusion method (Murray et al., [1995]). Each compound (100 µg) was placed on Petri plates with agar medium (previously inoculated with 0.5 McFarland standards with the tested bacterial strains). After 18 h of incubation at 37 °C (for aerobic strains) or 40 h at 35 °C (for microaerobic strains), zones of microbial growth produced around the tested substances were measured and recorded as the diameters of inhibition.

[2] = test system: Lactobacillus acidophilus PCM 210; experiment: as above; conditions: Lactobacillus acidophilus, PCM210, 100 μg of compound, read-out: Zone of bacterial growth inhibition, L.a
From the text: as §1, §2

[3] = test system: Lactobacillus spp.; experiment: as above; conditions: Lactobacillus, 100 μg of compound, read-out: Zone of bacterial growth inhibition, L.spp.
From the text: as §1, §2

[4] = test system: Pseudomonas aeruginosa ATCC 9027; experiment: as above; conditions: Pseudomonas aeruginosa, ATCC9027, 100 μg of compound, read-out: Zone of bacterial growth inhibition, P.a
From the text: as §1, §2

[5] = test system: Staphylococcus aureus ATCC 25923; experiment: as above; conditions: Staphylococcus aureus, ATCC25923, 100 μg of compound, read-out: Zone of bacterial growth inhibition, S.a
From the text: as §1, §2

[6] = test system: Staphylococcus epidermidis ATCC 12228; experiment: as above; conditions: Staphylococcus epidermidis, ATCC12228, 100 μg of compound, read-out: Zone of bacterial growth inhibition, S.e
From the text: as §1, §2

[7] = test system: Streptococcus mutans PCM 2502; experiment: as above; conditions: Streptococcus mutans, PCM2502, 100 μg of compound, read-out: Zone of bacterial growth inhibition, S.m
From the text: as §1, §2

[8] = test system: Streptococcus sanguinis PCM 2335; experiment: as above; conditions: Streptococcus sanguinis, PCM2335, 100 μg of compound, read-out: Zone of bacterial growth inhibition, S.s
From the text: as §1, §2

[9] = test system: Escherichia coli ATCC 25922; experiment: Broth microdilution MIC; conditions: NA means inactive; for MIC: Escherichia coli, ATCC25922, broth microdilution, read-out: Minimum inhibitory concentration (MIC), E. coli; for Minimum inhibitory concentration (MIC), E. coli: broth microdilution
From the text: as §1
(§3) A broth microdilution method was used to evaluate the minimum inhibition concentration (MIC) according to the CLSI document (CLSI performance standards for antimicrobial susceptibility testing, 2008, Eighteenth International Supplement, CLSI document M7-MIC, Clinical Laboratory Standards Institute, Wayne) with some modifications. […] A serial doubling dilution of the compounds was prepared in 96-well plates (200 μL per well). A suitable medium (M-H Broth, MRS Broth Lactobacillus, BHI Broth) was used as a diluent. The final concentrations of derivatives were 1000–0.015 μg/mL. Finally, 2 μL of inoculum of the tested bacterial strain (1.5 × 10^8 CFU/mL) was added to each well. The tests were performed either at 36 °C for 18 h (aerobic strains) or at 40 h (microaerobic strains). After incubation, the panel was digitally analyzed at 600 nm using the microplate reader Bio Tech Synergy (USA) with a dedicated software system. The growth intensity in each well was compared with the negative and positive controls.

[10] = test system: Pseudomonas aeruginosa ATCC 9027; experiment: Broth microdilution MIC; conditions: Pseudomonas aeruginosa, ATCC9027, NA means inactive, read-out: Minimum inhibitory concentration (MIC), P. aeruginosa
From the text: as §1, §3

[11] = test system: Staphylococcus aureus ATCC 25923; experiment: Broth microdilution MIC; conditions: Staphylococcus aureus, ATCC25923, NA means inactive, read-out: Minimum inhibitory concentration (MIC), S. aureus
From the text: as §1, §3

[12] = test system: Staphylococcus epidermidis ATCC 12228; experiment: Broth microdilution MIC; conditions: Staphylococcus epidermidis, ATCC12228, NA means inactive, read-out: Minimum inhibitory concentration (MIC), S. epidermidis
From the text: as §1, §3

[13] = test system: Streptococcus mutans PCM 2502; experiment: Broth microdilution MIC; conditions: Streptococcus mutans, PCM2502, NA means inactive, read-out: Minimum inhibitory concentration (MIC), S. mutans
From the text: as §1, §3

[14] = test system: Streptococcus sanguinis PCM 2335; experiment: Broth microdilution MIC; conditions: Streptococcus sanguinis, PCM2335, NA means inactive, read-out: Minimum inhibitory concentration (MIC), S. sanguinis
From the text: as §1, §3

[15] = test system: Lactobacillus acidophilus PCM 210; experiment: Broth microdilution MIC; conditions: for MIC: Lactobacillus acidophilus, PCM210, NA means inactive, read-out: Minimum inhibitory concentration (MIC), L. acidophilus

Compound | zone of inhibition at 100 µg/disc [1] [mm] | zone of inhibition at 100 µg/disc [2] [mm] | zone of inhibition at 100 µg/disc [3] [mm] | zone of inhibition at 100 µg/disc [4] [mm] | zone of inhibition at 100 µg/disc [5] [mm] | zone of inhibition at 100 µg/disc [6] [mm] | zone of inhibition at 100 µg/disc [7] [mm] | zone of inhibition at 100 µg/disc [8] [mm] | MIC [9] [µg/mL] | MIC [10] [µg/mL] | MIC [11] [µg/mL] | MIC [12] [µg/mL] | MIC [13] [µg/mL] | MIC [14] [µg/mL] | MIC [15] [µg/mL] | Minimum inhibitory concentration (MIC), E. coli [9] [µg/mL] | Minimum inhibitory concentration (MIC), L. acidophilus ([15]; NA means inactive)
O=C(NNC(=S)Nc1ccc(Cl)cc1Cl)c1cccnc1 [Compound 7, 4-(2,4-Dichlorophenyl)-1-(pyridin-3-yl)carbonylthiosemicarbazide] | 9 | 5 | 7 | 0 | 0 | 10 | 24 | 10 | > 1000 | > 1000 | > 1000 | 500 | 500 | 1000 | > 1000 | – | –
CSc1ccc(NC(=S)NNC(=O)c2cccnc2)cc1 [Compound 6, 4-(4-Methylthiophenyl)-1-(pyridin-3-yl)carbonylthiosemicarbazide] | 9 | 0 | 0 | 0 | 10 | 9 | 11 | 19 | 62 to 125 | > 1000 | 250 | 500 | 250 | 15.6 | > 1000 | 62.5 | did not limit the growth
O=C(NNC(=S)Nc1ccccc1Cl)c1ccccn1 [Compound 2, 4-(2-Chlorophenyl)-1-(pyridin-2-yl)carbonylthiosemicarbazide] | 20 | 16 | 24 | 4 | 17 | 25 | 24 | 0 | 62 to 125 | 1000 | 31.2 | 31.2 | 250 | 250 | 62.5 (≈ 204 µM) | 62.5 | –
O=C(NNC(=S)Nc1ccc(Cl)cc1Cl)c1ccccn1 [Compound 4, 4-(2,4-Dichlorophenyl)-1-(pyridin-2-yl)carbonylthiosemicarbazide] | 20 | 20 | 24 | 14 | 22 | 27 | 35 | 25 | 62 to 125 | 500 | 31.2 | 31.2 | 31.2 | 7.81 | 31.2 (≈ 91.6 µM) | 62.5 | –
CCOc1ccc2nc3cc(N)ccc3c(N)c2c1 [Ethacridine lactate, ethacridine lactate, reference compound] | 12 | 15 | 10 | 4 | 10 | 8 | 24 | 24 | 15.6 | 125 | 31.2 | 31.2 | 62.5 | 31.2 | 31.2 | – | –
[H]/N=C(\N/C(=N/[H])NCCCCCCNC(=N)NC(=N)Nc1ccc(Cl)cc1)Nc1ccc(Cl)cc1 [CLX, chlorhexidine digluconate, reference compound] | 15 | 24 | 24 | 16 | 23 | 23 | 26 | 29 | 0.488 | 15.6 | 0.488 | 0.488 | 0.488 | 7.81 | 0.976 | – | –
